Results taken from patent US5202348A, “Thiarubrine antifungal agents” (The University of British Columbia, priority 1990, dated 1993).
Values after ≈ are worked out from the molar mass of the structure shown. Like-named read-outs stand apart in the source and are kept apart here.

Assays:
[1] = system: C. albicans; test: Changes in LC50 on addition of fetal bovine serum to Saboraud dextrose medium; type: cell-based; details: Candida albicans
From the text: (§1) Data on degradation of Thiarubrine D (ThD) expressed as changes of concentration required to inhibit growth of C. albicans in 50% during 24 hrs. exposure (Lc50 24 hrs.).

[2] = system: Klebsiella pneumoniae; test: Minimal inhibitory concentration, agar dilution method; type: cell-based; details: ATCC33495, 21 h, No. 7, ATCC 33495
Description: (§2) Results were obtained by agar dilution method. Mueller Hinton agar plates (pH - 7.4) with different doses of ThD were inoculated with 10^4 cfu/spot and incubated 21 hours at 34°. MIC is the lowest concentration with no growth.

[3] = system: Staphylococcus epidermis; test: as above; type: cell-based; details: ATCC29972, 21 h, No. 8, ATCC 29972
Description: as §2

[4] = system: Serratia marscenes; test: as above; type: cell-based; details: 21 h, No. 27, strain 3A3
Description: as §2

[5] = system: Listeria monocytogenes; test: as above; type: cell-based
Description: as §2

[6] = system: Enterococcus (gentamycin res.); test: as above; type: cell-based; details: 21 h, read-out: Minimal Inhibitory Concentration
Description: as §2

[7] = system: Candida pseudotropicalis; test: as above; type: cell-based; details: Kluyveromyces marxianus, 21 h; No. 10
Description: as §2

[8] = system: Streptococcus faecalis; test: as above; type: cell-based; details: Enterococcus faecalis, ATCC29212, 21 h; No. 2, ATCC 29212
Description: as §2

[9] = system: Pseudomonas aeruginosa; test: as above; type: cell-based
Description: as §2

[10] = system: Enterobacter sp.; test: as above; type: cell-based; details: 21 h, No. 26, strain 9E7
Description: as §2

[11] = system: Staphylococcus aureus; test: as above; type: cell-based; details: for MIC: Staphylococcus aureus, read-out: Minimal Inhibitory Concentration
Description: as §2

[12] = system: Enterobacter cloacoe; test: as above; type: cell-based
Description: as §2

[13] = system: Escherichia coli; test: as above; type: cell-based; details: ATCC25992, 21 h, read-out: Minimal Inhibitory Concentration
Description: as §2

[14] = system: Cryptococcus neoformans; test: as above; type: cell-based; details: 21 h, No. 9, F548
Description: as §2

[15] = system: Enterobacter aerogenes; test: as above; type: cell-based; details: Klebsiella aerogenes, ATCC35029, 21 h; No. 6, ATCC 35029
Description: as §2

[16] = system: Aspergillus; test: as above; type: cell-based; details: 21 h
Description: as §2

[17] = system: Zanthomonas maltophilia; test: as above; type: cell-based; details: 21 h; No. 15, strain 3E6
Description: as §2

[18] = system: C. albicans; test: Decomposition of ThD in 95% ethanol in -20° C. (LC50 on C. albicans); type: cell-based; details: Candida albicans
From the text: as §1

[19] = system: E. coli; test: Growth inhibition of E. coli during 24 hours exposure; type: cell-based, Escherichia coli; details: Escherichia coli; 24 hours exposure; Table 3; read-out: Minimal concentration causing 100% growth inhibition
[20] = system: P815; test: Growth inhibition of P815 mastocytoma during 24 hours exposure; type: cell-based, Mouse; details: Mus musculus, P815, 24 hours exposure
Description: (§3) P815 = Mouse mastocytoma […]
(§4) a logarithmic scale and percent of growth inhibition for 24 hours exposur
(§5) on a probability scale.

[21] = as above; type: cell-based, Mouse; details: mouse, p815 cells
Description: as §3, §4, §5

[22] = Growth inhibition of WEHI-3 during 24 hours exposure; type: cell-based, Mouse; details: mouse, wehi-3 cells; Table 2; read-out: Toxicity Index, LC50 WEHI-3 / LC50 C. albicans
Description: (§6) WEHl3 = Mouse myelomonocyte
(§7) Doses inhibiting growth in 50% were estimated by plotting concentration o
as §4, §5

[23] = system: WEHI-3; test: as above; type: cell-based, Mouse; details: Mus musculus, WEHI-3; 24 hours exposure; Table 1; read-out: Concentration causing 50% growth inhibition
Description: as §6, §7, §4, §5

[24] = system: Aspergillus fumigatus; test: Sensitivity of Aspergillus fumigatus, agar diffusion method; type: cell-based; details: disc diameter 6 mm, read-out: Zone of Growth Inhibition
From the text: Results were obtained by agar diffusion method. Disc diameter - 6 mm. -* = no zone over disc diameter.

[25] = system: P815 mastocytoma; test: LC50 (24 hrs.), doses required to inhibit growth in 50%, different method; type: cell-based; details: Mus musculus, P815, 24 h, read-out: LC50 (24 hrs.), dose required to inhibit growth in 50%
[26] = Stability / decomposition of thiarubrines; details: under light
[27] = system: L1210; test: Growth inhibition of L1210 during 24 hours exposure; type: cell-based, Mouse; details: Mus musculus, L1210; 24 hours exposure; Table 1; read-out: Concentration causing 50% growth inhibition
Description: (§8) L1210 = Mouse lymphocytic leukemia
as §7, §4, §5

[28] = as above; type: cell-based, Mouse; details: mouse, l1210 cells; Table 2; read-out: Toxicity Index, LC50 L1210 / C. albicans
Description: as §8, §7, §4, §5

[29] = system: Candida; test: Anti-Candida activity (summary); type: cell-based; details: Table 14;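 also: Letter grades where Y means active and y means less active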
[30] = system: E. coli; test: Growth inhibition of E. coli during 24 hours exposure; type: cell-based, Escherichia coli; details: Escherichia coli; 24 hours exposure; Table 4; read-out: Minimal concentration causing 50% growth inhibition
Description: as §7, §4, §5

[31] = system: Aspergillus; test: Anti-Aspergillus activity (summary); type: cell-based; details: Table 14;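 also: Letter grades where Y means active and y means less active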

## CC#CC1=CC=C(C#CC#CC2CO2)SS1 (centres unmarked) [Thiarubrine D]
[1]; SAB
  IC50: 0.007 µg/mL (≈ 0.0286 µM)
[1]; SAB + 5% FBS
  IC50: 0.014 µg/mL
[1]; SAB + 10% FBS
  IC50: 0.016 µg/mL
[2]
  MIC: 10 µg/mL (≈ 40.9 µM)
[3]
  MIC: 10 µg/mL (≈ 40.9 µM)
[4]
  MIC: 10 µg/mL (≈ 40.9 µM)
[5]; Listeria monocytogenes, 21 h, No. 28, strain 106
  MIC: 10 µg/mL (≈ 40.9 µM)
[5]; No. 29, strain 301
  Minimal Inhibitory Concentration: 10,000 ng/ml
[6]
  MIC: 0.01 µg/mL (≈ 0.0409 µM)
[7]
  MIC: 10 µg/mL (≈ 40.9 µM)
[8]
  MIC: 10 µg/mL (≈ 40.9 µM)
[9]; 21 h, No. 12, strain 141
  MIC: > 10 µg/mL
[9]; 21 h, No. 13, strain 205
  MIC: > 10 µg/mL
[9]; 21 h, No. 14, strain 3E5
  MIC: 10 µg/mL (≈ 40.9 µM)
[9]; ATCC27853, 21 h, No. 4, ATCC 27853
  MIC: 10 µg/mL (≈ 40.9 µM)
[10]
  MIC: 10 µg/mL (≈ 40.9 µM)
[11]; No. 16, strain B4287 (metacylliu res.)
  Minimal Inhibitory Concentration: 10,000 ng/ml
[11]; 21 h
  MIC: 10 µg/mL (≈ 40.9 µM)
[11]; ATCC25923, 21 h, No. 1, ATCC 25923
  MIC: 10 µg/mL (≈ 40.9 µM)
[11]; ATCC29213, 21 h, No. 5, ATCC 29213
  MIC: 10 µg/mL (≈ 40.9 µM)
[12]; Enterobacter, 21 h, No. 19, strain 1A5
  MIC: 1 µg/mL (≈ 4.09 µM)
[12]; No. 20, strain 9E5
  Minimal Inhibitory Concentration: 1,000 ng/ml
[13]
  MIC: 1 µg/mL (≈ 4.09 µM)
[14]
  MIC: 0.064 µg/mL (≈ 0.262 µM)
[15]
  MIC: 10 µg/mL (≈ 40.9 µM)
[16]; No. 21, strain 05
  MIC: 0.032 µg/mL (≈ 0.131 µM)
[16]; No. 34, strain F604
  MIC: 0.064 µg/mL (≈ 0.262 µM)
[17]
  MIC: 10 µg/mL (≈ 40.9 µM)
[18]; 0 h, 0 days
  IC50: 0.007 µg/mL (≈ 0.0286 µM)
[18]; 504 h, 21 days
  IC50: 0.017 µg/mL (≈ 0.0696 µM)
[19]
  MIC: 0.078 µg/mL (≈ 0.319 µM)
[20]; Table 1, read-out: Concentration causing 50% growth inhibition
  IC50: 0.12 µg/mL (≈ 0.491 µM)
[20]; Table 3, read-out: Minimal concentration causing 100% growth inhibition
  IC100: 1.25 µg/mL
[20]; Table 4, read-out: Minimal concentration causing 50% growth inhibition
  IC50: 0.12 µg/mL (≈ 0.491 µM)
[21]; 50% growth inhibition, Table 4, read-out: Ratio of concentration needed to inhibit growth in 50%, P815 vs C. albicans
  selectivity ratio at 24 h: 200
[21]; 100% growth inhibition, Table 3, read-out: Ratio of minimal concentration causing 100% growth inhibition, P815 line vs C. albicans
  selectivity ratio at 24 h: ~500
[21]; Table 2, read-out: Toxicity Index, LC50 P815 / LC50 C. albicans
  selectivity ratio at 24 h: 200
[22]
  selectivity ratio at 24 h: 83
[23]
  IC50: 0.05 µg/mL (≈ 0.205 µM)
[24]; 10 ng/disc
  zone of inhibition at 0.01 µg/disc: 14 mm
[24]; 100 ng/disc
  zone of inhibition at 0.1 µg/disc: 23 mm
[24]; 1,000 ng/disc
  zone of inhibition at 1 µg/disc: 26 mm
[24]; 10,000 ng/disc
  zone of inhibition at 10 µg/disc: 32 mm
[25]
  IC50: 0.085 µg/mL (≈ 0.348 µM)
[26]
  Light sensitivity: light sensitive and breaks down under light to the corresponding thiophene
[27]
  IC50: 0.047 µg/mL (≈ 0.192 µM)
[28]
  selectivity ratio at 24 h: 78
[29]
  Anti-Candida: Y
[30]
  IC50: 0.02 µg/mL (≈ 0.0819 µM)
[31]
  Anti-Aspergillus: Y
